According to patent US5614533A, “Substituted pipecolinic acid derivatives as HIV protease inhibitors” (Bio-Mega/Boehringer Ingelheim Research, Inc., priority 1994, dated 1997):

What was measured:
[1] = target: T1, HIV protease (Human immunodeficiency virus type 1 group M subtype B, UniProt P04585); assay: Recombinant HIV Protease HPLC Assay; type: biochemical; settings: 37°, 30 min, pH 5.5
T1 construct: HIV protease was expressed in E. coli; made in house; host or cells: E. coli (plasmid pBRT1 prt+)
In short: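 Recombinant protease from E. coli (pBRT1 prt+ construct), purified and diluted 1/38 for use, cleaves the decapeptide substrate VSFNFPQITL-NH2, containing an HIV polyprotein cleavage site. Inhibition of cleavage is monitored by HPLC.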

[2] = tested on: HIV (H9/HTLV-IIIB) in C8166 cells; assay: plaque assay: inhibition of syncytia formation in HIV-infected C8166 cells; type: cell-based; settings: Human immunodeficiency virus 1, IIIB, 72 h, 50% inhibition of syncytia formation
In short: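 C8166 cells (5×10^4/well) infected with 50× TCID50 H9/HTLV-IIIB in HEPES-buffered RPMI 1640 (pH 7.2), 10% FCS, with test compound in triplicate; 72 h at 37°, 5% CO2. Syncytia centers counted by phase-contrast microscopy; EC50 from percent inhibition versus serial dilutions by non-linear regression.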

For `Cc1ccnc(S[C@@H]2CCN(C[C@@H](O)[C@H](Cc3ccccc3)NC(=O)[C@@H](NC(=O)c3ccc4ccccc4n3)C(C)C)[C@H](C(=O)NC(C)(C)C)C2)n1` [Table V, entry 23, N-tert-butyl-1-{2(R)-hydroxy-4-phenyl-3(S)-{{N-(2-quinolylinylcarbonyl)valyl}amino}butyl}-4(R)-{(4-methyl-2-pyrimidinyl)thio}piperidine-2(S)-carboxamide], the IC50 ([1]; Table V) was 2.8 nM and the EC50 ([2]; Table V) was 16 nM.
`CC(C)[C@H](NC(=O)c1ccc2ccccc2n1)C(=O)N[C@@H](Cc1ccccc1)[C@H](O)CN1CC[C@@H](OCc2cccnc2)C[C@H]1C(=O)NC(C)(C)C` [Table V, entry 24, N-tert-butyl-1-{2(R)-hydroxy-4-phenyl-3(S)-{{N-(2-quinolylinylcarbonyl)valyl}amino}butyl}-4(R)-(3-pyridinylmethoxy)piperidine-2(S)-carboxamide] showed an IC50 ([1]; Table V) of 3.7 nM and an EC50 ([2]; Table V) of 53 nM.
Work on `CC(C)(C)NC(=O)[C@@H]1C[C@H](Sc2ccccc2)CCN1C[C@@H](O)[C@H](Cc1ccccc1)NC(=O)[C@@H](NC(=O)c1ccc2ccccc2n1)C(C)(C)C` [Table VI, entry 1, N-tert-butyl-1-{2(R)-hydroxy-4-phenyl-3(S)-{{N-(2-quinolylinylcarbonyl)tert-butylglycyl}amino}butyl}-4(R)-(phenylthio)piperidine-2(S)-carboxamide] yielded an IC50 ([1]; Table VI) of 3 nM and an EC50 ([2]; Table VI) of 12 nM.
In the case of `Cc1cc(C)nc(S[C@@H]2CCN(C[C@@H](O)[C@H](Cc3ccccc3)NC(=O)[C@H](CC(N)=O)NC(=O)c3ccc4ccccc4n3)[C@H](C(=O)NC(C)(C)C)C2)n1` [Table VI, entry 2, N-tert-butyl-1-{2(R)-hydroxy-4-phenyl-3(S)-{{N-(2-quinolylinylcarbonyl)asparaginyl}amino}butyl}-4(R)-{(4,6-dimethyl-2-pyrimidinyl)}thiopiperidine-2(S)-carboxamide], the IC50 ([1]; Table VI) is reported as 2.2 nM and the EC50 ([2]; Table VI) is reported as 42 nM.
`CC(C)(C)NC(=O)[C@@H]1C[C@H](Sc2ncccn2)CCN1C[C@@H](O)[C@H](Cc1ccccc1)NC(=O)[C@H](CC(N)=O)NC(=O)c1ccc2ccccc2n1` [Table VI, entry 3, N-tert-butyl-1-{2(R)-hydroxy-4-phenyl-3(S)-{{N-(2-quinolylinylcarbonyl)asparaginyl}amino}butyl}-4(R)-(2-pyrimidinylthio)piperidine-2(S)-carboxamide] gave an IC50 ([1]; Table VI) of 2.1 nM and an EC50 ([2]; Table VI) of 60 nM.
Work on `CNC(=O)C[C@H](NC(=O)c1ccc2ccccc2n1)C(=O)N[C@@H](Cc1ccccc1)[C@H](O)CN1CC[C@@H](Oc2ccccc2)C[C@H]1C(=O)NC(C)(C)C` [Table VI, entry 4, N-tert-butyl-1-{2(R)-hydroxy-4-phenyl-3(S)-{{N-(2-quinolylinylcarbonyl)(N^4-methyl)asparaginyl}amino}butyl}-4(R)-phenoxypiperidine-2(S)-carboxamide] yielded an IC50 ([1]; Table VI) of 3.7 nM and an EC50 ([2]; Table VI) of 13 nM.
Molecule `CC(C)(C)NC(=O)[C@@H]1C[C@H](SCc2cccnc2)CCN1C[C@@H](O)[C@H](Cc1ccccc1)NC(=O)[C@@H](NC(=O)c1ccc2ccccc2n1)C(C)(C)C` [Table VI, entry 5, N-tert-butyl-1-{2(R)-hydroxy-4-phenyl-3(S)-{{N-(2-quinolylinylcarbonyl)tert-butylglycyl}amino}butyl}-4(R)-{(3-pyridinylmethyl)thio}piperidine-2(S)-carboxamide] has an IC50 ([1]; Table VI) of 2.2 nM and an EC50 ([2]; Table VI) of 8 nM.
With `C[C@@H](O)[C@H](NC(=O)c1ccc2ccccc2n1)C(=O)N[C@@H](Cc1ccccc1)[C@H](O)CN1CC[C@@H](S(=O)(=O)c2ccccc2)C[C@H]1C(=O)NC(C)(C)C` [Table VI, entry 6, N-tert-butyl-1-{2(R)-hydroxy-4-phenyl-3(S)-{{N-(2-quinolylinylcarbonyl)threonyl}amino}butyl}-4(R)-(phenylsulfonyl)piperidine-2(S)-carboxamide] the IC50 ([1]; Table VI) was 2.6 nM and the EC50 ([2]; Table VI) was 61 nM.
`CC(C)(C)NC(=O)[C@@H]1C[C@H](S(=O)(=O)c2ccncc2)CCN1C[C@@H](O)[C@H](Cc1ccccc1)NC(=O)[C@@H](NC(=O)c1ccc2ccccc2n1)C(C)(C)C` [Table VI, entry 7, N-tert-butyl-1-{2(R)-hydroxy-4-phenyl-3(S)-{{N-(2-quinolylinylcarbonyl)tert-butylglycyl}amino}butyl}-4(R)-(4-pyridinylsulfonyl)piperidine-2(S)-carboxamide] showed an IC50 ([1]; Table VI) of 2.1 nM and an EC50 ([2]; Table VI) of 29 nM.
`CC(C)(C)NC(=O)[C@@H]1C[C@H](S(=O)(=O)c2ccccn2)CCN1C[C@@H](O)[C@H](Cc1ccccc1)NC(=O)[C@@H](NC(=O)c1ccc2ccccc2n1)C(C)(C)C` [Table VI, entry 8, N-tert-butyl-1-{2(R)-hydroxy-4-phenyl-3(S)-{{N-(2-quinolylinylcarbonyl)tert-butylglycyl}amino}butyl}-4(R)-(2-pyridinylsulfonyl)piperidine-2(S)-carboxamide] showed an IC50 ([1]; Table VI) of 2.9 nM and an EC50 ([2]; Table VI) of 44 nM.
In the case of `Cc1cccc(C)c1OCC(=O)N[C@@H](Cc1ccccc1)[C@H](O)CN1CC[C@@H](SCc2cccnc2)C[C@H]1C(=O)NC(C)(C)C` [Table VII, entry 1, N-tert-Butyl-1-{3(S)-{{(2,6-dimethylphenoxy)acetyl}amino}-2(R)-hydroxy-4-phenylbutyl}-4(R)-{(3-pyridinylmethyl)thio}piperidine-2(S)-carboxamide], the IC50 ([1]; Table VII) is reported as 2.7 nM and the EC50 ([2]; Table VII) is reported as 35 nM.
Work on `Cc1cc(C)c(OCC(=O)N[C@@H](Cc2ccccc2)[C@H](O)CN2CC[C@@H](Sc3ccncc3)C[C@H]2C(=O)NC(C)(C)C)c(C)c1` [Table VII, entry 2, N-tert-butyl-1-{3(S)-{{(2,4,6-trimethylphenoxy)acetyl}amino}-2(R)-hydroxy-4-phenylbutyl}-4(R)-(4-pyridinylthio)piperidine-2(S)-carboxamide] yielded an IC50 ([1]; Table VII) of 3.7 nM and an EC50 ([2]; Table VII) of 47 nM.
With `Cc1cccc(C)c1OCC(=O)N[C@@H](Cc1ccccc1)[C@H](O)CN1CC[C@@H](Sc2ccncc2)C[C@H]1C(=O)NC(C)(C)C` [Table VII, entry 4, N-tert-butyl-1-{3(S)-{{(2,6-dimethylphenoxy)acetyl}amino}-2(R)-hydroxy-4-phenylbutyl}-4(R)-(4-pyridinylthio)piperidine-2(S)-carboxamide] the IC50 ([1]; Table VII) was 3.1 nM and the EC50 ([2]; Table VII) was 20 nM.
`Cc1ccccc1OCC(=O)N[C@@H](Cc1ccccc1)[C@H](O)CN1CC[C@@H](Sc2ccncc2)C[C@H]1C(=O)NC(C)(C)C` [Table VII, entry 5, N-tert-butyl-1-{3(S)-{{(2-methylphenoxy)acetyl}amino}-2(R)-hydroxy-4-phenylbutyl}-4(R)-(4-pyridinylthio)piperidine-2(S)-carboxamide] showed an IC50 ([1]; Table VII) of 6.2 nM and an EC50 ([2]; Table VII) of 140 nM.
Molecule `CC(C)(C)NC(=O)[C@@H]1C[C@H](Sc2ccncc2)CCN1C[C@@H](O)[C@H](Cc1ccccc1)NC(=O)c1ccc(Cl)cc1Cl` [Table VII, entry 6, N-tert-butyl-1-{3(S)-{{(2,4-dichlorophenyl)carbonyl}amino}-2(R)-hydroxy-4-phenylbutyl}-4(R)-(4-pyridinylthio)piperidine-2(S)-carboxamide] has an IC50 ([1]; Table VII) of 5.4 nM and an EC50 ([2]; Table VII) of 340 nM.
`CC(C)(C)NC(=O)[C@@H]1C[C@H](Sc2ccncc2)CCN1C[C@@H](O)[C@H](Cc1ccccc1)NC(=O)c1cc(Cl)ccc1Cl` [Table VII, entry 7, N-tert-butyl-1-{3(S)-{{(2,5-dichlorophenyl)carbonyl}amino}-2(R)-hydroxy-4-phenylbutyl}-4(R)-(4-pyridinylthio)piperidine-2(S)-carboxamide] showed an IC50 ([1]; Table VII) of 9.8 nM and an EC50 ([2]; Table VII) of 360 nM.
With `CC(C)(C)NC(=O)[C@@H]1C[C@H](Sc2ccncc2)CCN1C[C@@H](O)[C@H](Cc1ccccc1)NC(=O)c1c(F)cccc1F` [Table VII, entry 8, N-tert-butyl-1-{3(S)-{{(2,6-difluorophenyl)carbonyl}amino}-2(R)-hydroxy-4-phenylbutyl}-4(R)-(4-pyridinylthio)piperidine-2(S)-carboxamide] the IC50 ([1]; Table VII) was 14 nM and the EC50 ([2]; Table VII) was 340 nM.
